{"source": "paper PMC8523698", "about": "“Preclinical characterization of an intravenous coronavirus 3CL protease inhibitor for the potential treatment of COVID19” (Nature Communications, 2021)", "key": {"[1]": {"assay": "Human pharmacokinetic, Ceff and dose predictions", "settings": "Fig 6C reference line, drawn from 0 to 72 h; head gives 500 nM"}, "[2]": {"settings": "read-out: competitive Ki; vendor-verified compound file; ref Simcyp library; cited from earlier work"}, "[3]": {"system": "SARS-CoV-2 Washington strain 1 (USA_WA1/2020)", "type": "cell-based", "set-up": "Percent Effect / Percent Effect (EC50 data): scale not given: direction of the effect not stated beside the values"}, "HCoV-229E": {"system": "HCoV-229E", "assay": "Viral CPE assay in MRC-5 cells (CellTiter Glo)", "type": "cell-based"}, "MRC-5 cells": {"system": "MRC-5 cells", "assay": "Cytotoxicity in MRC-5 cells"}, "MDR1/P-gp": {"molecular_target": "MDR1/P-gp (Homo sapiens, UniProt P08183)", "sequence (P08183 whole entry)": "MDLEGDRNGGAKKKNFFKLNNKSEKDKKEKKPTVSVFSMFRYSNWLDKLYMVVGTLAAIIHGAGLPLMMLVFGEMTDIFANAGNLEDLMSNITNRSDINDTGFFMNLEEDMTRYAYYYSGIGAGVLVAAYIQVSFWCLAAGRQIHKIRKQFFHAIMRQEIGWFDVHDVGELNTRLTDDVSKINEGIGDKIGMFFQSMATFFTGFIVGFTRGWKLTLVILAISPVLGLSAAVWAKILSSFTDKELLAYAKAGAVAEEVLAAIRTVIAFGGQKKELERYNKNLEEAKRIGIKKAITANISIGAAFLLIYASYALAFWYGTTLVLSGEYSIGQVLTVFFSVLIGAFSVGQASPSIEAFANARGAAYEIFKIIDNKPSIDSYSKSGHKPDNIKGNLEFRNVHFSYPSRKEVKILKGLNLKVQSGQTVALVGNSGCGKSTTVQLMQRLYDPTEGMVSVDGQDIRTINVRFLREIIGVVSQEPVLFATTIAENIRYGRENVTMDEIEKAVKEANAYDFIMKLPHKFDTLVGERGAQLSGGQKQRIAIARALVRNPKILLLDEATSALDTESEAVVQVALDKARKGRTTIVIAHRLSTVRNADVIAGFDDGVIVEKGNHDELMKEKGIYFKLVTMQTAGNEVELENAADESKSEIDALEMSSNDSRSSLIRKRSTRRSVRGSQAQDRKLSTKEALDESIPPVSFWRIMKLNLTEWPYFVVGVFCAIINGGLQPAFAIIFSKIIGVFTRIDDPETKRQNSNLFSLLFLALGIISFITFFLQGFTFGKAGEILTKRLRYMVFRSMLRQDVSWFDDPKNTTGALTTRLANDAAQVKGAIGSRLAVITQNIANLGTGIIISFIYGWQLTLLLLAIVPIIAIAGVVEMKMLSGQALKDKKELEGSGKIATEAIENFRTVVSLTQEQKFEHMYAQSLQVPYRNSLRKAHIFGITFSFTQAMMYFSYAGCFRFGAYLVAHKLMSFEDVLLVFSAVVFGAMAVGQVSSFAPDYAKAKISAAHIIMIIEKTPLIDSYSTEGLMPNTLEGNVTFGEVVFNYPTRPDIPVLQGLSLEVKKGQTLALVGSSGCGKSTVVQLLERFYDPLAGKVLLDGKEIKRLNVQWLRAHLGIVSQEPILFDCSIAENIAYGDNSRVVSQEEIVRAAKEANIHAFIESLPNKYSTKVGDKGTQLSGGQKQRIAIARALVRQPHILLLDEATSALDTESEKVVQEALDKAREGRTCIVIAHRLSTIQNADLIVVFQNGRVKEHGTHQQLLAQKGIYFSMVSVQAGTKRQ", "assay": "Transporter inhibition using membrane vesicles", "settings": "uptake of N-methyl quinidine by MDR1; control inhibitor concentration 4.000 uM; single replicates"}, "[4]": {"assay": "Rat 24-h continuous intravenous infusion GLP toxicity study", "type": "in vivo, Sprague-Dawley rats", "settings": "Fig 6C reference line 0 to 72 h"}}, "note": "Values joined by “and” are separate entries in the source; they are usually repeats but may differ in a detail not shown here. Equal entries are not always repeated. Where two headings read alike, the source gives them in different places.", "data": [{"smiles": "COc1cccc2[nH]c(C(=O)N[C@@H](CC(C)C)C(=O)N[C@@H](C[C@@H]3CCNC3=O)C(=O)CO)cc12", "note": "[Active]", "values": [{"measurement": "Ceff SARS-COV2 (+P-gp inhib)= 500 nM", "setting": "[1]", "result": 0.5}]}, {"smiles": "CC(O)C(C)n1ncn(-c2ccc(N3CCN(c4ccc(OCC5COC(Cn6cncn6)(c6ccc(Cl)cc6Cl)O5)cc4)CC3)cc2)c1=O", "note": "(stereo not drawn) [OH-itraconazole]", "values": [{"measurement": "Ki", "setting": "[2]", "result": 0.0023, "unit": "µM"}]}, {"smiles": "COc1cccc2[nH]c(C(=O)N[C@@H](CC(C)C)C(=O)N[C@@H](C[C@@H]3CCNC3=O)C(=O)COP(=O)(O)O)cc12", "note": "[PF-07304814-00]", "values": [{"measurement": "Percent Effect", "setting": "[3]; 0.00976562 uM", "result": "0.053% and 0.085%"}, {"measurement": "Percent Effect", "setting": "[3]; 0.0195312 uM", "result": "2.09% and 3.15%"}, {"measurement": "Percent Effect", "setting": "[3]; 0.0390625 uM", "result": "0.085% and 9.35%"}, {"measurement": "Percent Effect", "setting": "[3]; 0.078125 uM", "result": "-0.27% and 0.54%"}, {"measurement": "Percent Effect (EC50 data)", "setting": "[3]; 0.195312 uM", "result": -0.82, "unit": "%"}, {"measurement": "Percent Effect", "setting": "[3]; 0.3125 uM", "result": "2.28% and 1.63%"}, {"measurement": "Percent Effect", "setting": "[3]; 0.390625 uM", "result": "7.76% and 0.81% and 1.70% and 4.09% and 0.21% and 2.38% and 2.51% and 3.73%"}, {"measurement": "Percent Effect (EC50 data)", "setting": "[3]; 0.390625 uM", "result": -0.72, "unit": "%"}, {"measurement": "Percent Effect", "setting": "[3]; 0.625 uM", "result": "-1.46% and -0.53%"}, {"measurement": "Percent Effect (EC50 data)", "setting": "[3]; 0.78125 uM", "result": "8.72% and 9.53%"}, {"measurement": "Percent Effect (EC50 data)", "setting": "[3]; 3.125 uM", "result": "96.73% and 101.34%"}, {"measurement": "Percent Effect (EC50 data)", "setting": "[3]; 5 uM", "result": "98.13% and 94.20%"}, {"measurement": "Percent Effect (EC50 data)", "setting": "[3]; 6.25 uM", "result": "105.65% and 94.43%"}, {"measurement": "Percent Effect (EC50 data)", "setting": "[3]; 25 uM", "result": 105.56, "unit": "%"}, {"measurement": "Percent Effect (EC50 data)", "setting": "[3]; 31.6456 uM", "result": "95.69% and 95.38% and 91.49% and 94.38%"}, {"measurement": "Percent Effect (EC50 data)", "setting": "[3]; 50 uM", "result": 95.66, "unit": "%"}, {"measurement": "Percent Effect (EC50 data)", "setting": "[3]; 100 uM", "result": "87.92% and 94.81% and 91.90% and 95.50%"}, {"measurement": "% Well Effect (EC50 data)", "setting": "HCoV-229E; minus efflux inhibitor, 0.000949 uM", "result": "1.31% and -4.82% and -7.06% and -4.29% and -0.06%"}, {"measurement": "% Well Effect (EC50 data)", "setting": "HCoV-229E; minus efflux inhibitor, 0.300053 uM", "result": "80.07% and 80.97% and 97.35% and 80.44% and 65.29% and 92.74%"}, {"measurement": "% Well Effect (EC50 data)", "setting": "HCoV-229E; minus efflux inhibitor, 0.948767 uM", "result": "81.04% and 93.59% and 91.22% and 85.19% and 91.91% and 88.72%"}, {"measurement": "% Well Effect (EC50 data)", "setting": "HCoV-229E; minus efflux inhibitor, 3 uM", "result": "79.54% and 90.29% and 94.42% and 83.20% and 94.29% and 89.17%"}, {"measurement": "% Well Effect (EC50 data)", "setting": "HCoV-229E; plus 0.5 uM efflux inhibitor, 0.094893 uM", "result": "70.28% and 62.16% and 55.71% and 62.75% and 53.71% and 73.85%"}, {"measurement": "% Well Effect (EC50 data)", "setting": "HCoV-229E; plus 0.5 uM efflux inhibitor, 0.300053 uM", "result": "83.32% and 95.05% and 90.93% and 79.15% and 93.97% and 90.05%"}, {"measurement": "% Well Effect (EC50 data)", "setting": "HCoV-229E; plus 0.5 uM efflux inhibitor, 0.948767 uM", "result": "82.39% and 96.75% and 87.38% and 79.38% and 95.45% and 97.43%"}, {"measurement": "% Well Effect (EC50 data)", "setting": "HCoV-229E; plus 0.5 uM efflux inhibitor, 3 uM", "result": "80.02% and 92.89% and 93.90% and 81.60% and 91.07% and 95.86%"}, {"measurement": "% Well Effect (CC50 data)", "setting": "MRC-5 cells; minus efflux inhibitor, 0.031642 uM", "result": -10.74, "unit": "%"}, {"measurement": "% Well Effect (CC50 data)", "setting": "MRC-5 cells; minus efflux inhibitor, 0.100053 uM", "result": "-6.45% and -4.39%"}, {"measurement": "% Well Effect (CC50 data)", "setting": "MRC-5 cells; minus efflux inhibitor, 3.16311 uM", "result": -8.68, "unit": "%"}, {"measurement": "% Well Effect (CC50 data)", "setting": "MRC-5 cells; minus efflux inhibitor, 10.0018 uM", "result": -6.54, "unit": "%"}, {"measurement": "% Well Effect (CC50 data)", "setting": "MRC-5 cells; plus 0.5 uM efflux inhibitor, 0.031642 uM", "result": "-2.54% and -3.43%"}, {"measurement": "% Well Effect (CC50 data)", "setting": "MRC-5 cells; plus 0.5 uM efflux inhibitor, 0.100053 uM", "result": "-2.51% and -2.24% and 4.92%"}, {"measurement": "% Well Effect (CC50 data)", "setting": "MRC-5 cells; plus 0.5 uM efflux inhibitor, 1.00035 uM", "result": "-1.28% and -4.08%"}, {"measurement": "% Well Effect (CC50 data)", "setting": "MRC-5 cells; plus 0.5 uM efflux inhibitor, 3.16311 uM", "result": "5.87% and 5.13%"}, {"measurement": "% Well Effect (CC50 data)", "setting": "MRC-5 cells; plus 0.5 uM efflux inhibitor, 31.6256 uM", "result": "-2.89% and -4.52%"}, {"measurement": "% Well Effect (CC50 data)", "setting": "MRC-5 cells; plus 0.5 uM efflux inhibitor, 100 uM", "result": "2.77% and -3.47% and 5.60% and -0.62%"}]}, {"smiles": "COc1cccc2[nH]c(C(=O)N[C@@H](CC(C)C)C(=O)N[C@@H](C[C@@H]3CCNC3=O)C(=O)COP(=O)(O)O)cc12", "note": "[PF-073048141]", "values": [{"measurement": "CC50", "setting": "VeroE6-EGFP cells", "result": "> 50", "unit": "µM"}, {"measurement": "CC50", "setting": "VeroE6-EGFP cells; n=2", "result": "> 50", "unit": "µM"}]}, {"smiles": "C/C=C/C[C@@H](C)C(=O)[C@H]1C(=O)N[C@@H](C(C)C)C(=O)N(C)CC(=O)N(C)[C@@H](CC(C)C)C(=O)N[C@@H](C(C)C)C(=O)N(C)[C@@H](CC(C)C)C(=O)N[C@@H](C)C(=O)N[C@H](C)C(=O)N(C)[C@@H](CC(C)C)C(=O)N(C)[C@@H](CC(C)C)C(=O)N(C)[C@@H](C(C)C)C(=O)N1C", "note": "[PSC833]", "values": [{"measurement": "% PGP Uptake Activity", "setting": "MDR1/P-gp", "result": "0.2057% (2×) and -0.01029% (2×) and -0.1954% (2×)"}]}, {"smiles": "COc1cccc2[nH]c(C(=O)N[C@@H](CC(C)C)C(=O)N[C@@H](C[C@@H]3CCNC3=O)C(=O)COP(=O)(O)O)cc12", "note": "[Pf-4814]", "values": [{"measurement": "Reg tox Day 1 Rat with Pf-4814 Actove (Cave, uM)", "setting": "[4]; Day 1, dosed with Pf-4814, Cave of active", "result": 10.7, "unit": "µM"}]}, {"smiles": "COc1cccc2[nH]c(C(=O)N[C@@H](CC(C)C)C(=O)N[C@@H](C[C@@H]3CCNC3=O)C(=O)CO)cc12", "note": "[Pf-5231]", "values": [{"measurement": "Reg tox Day 1 Rat with Pf-5231 Actove (Cave,uM)", "setting": "[4]; Day 1, dosed with Pf-5231, Cave of active", "result": 10.7, "unit": "µM"}]}]}
